{"source": "patent US20160022810A1", "about": "“Method for Treating Cancers by Alternating Immunotherapeutics and Directly Oncolytic Therapeutics” (priority 2014, published 2016)", "key": {"4T1 cells": {"tested_on": "4T1 cells", "assay": "survival with CATS alternating with cyclophosphamide (FIG. 10)", "format": "in vivo, mice", "conditions": "cyclophosphamide alone 80 mg/kg ip, two boluses over 48 hours from Day 20, then weekly", "description": "This Kaplan-Meier graph plots survival of three groups of mice (10/cohort) implanted with 1×10^4 4T1 cells on Day 0 and initiated to treatment on Day 20 with two bolus doses over the first 48 hours, and thereafter once weekly of either placebo (blue, 50 ng IV), cyclophosphamide (Cy, orange, 80 mg/kg ip) or alternating therapy (CATS/Cy, green, 50 ng IV CATS™ boluses or every other week, alternating every other week with Cy 80 mg/kg). In this trial 100% of mice treated with CATS™ alternating therapy survived 75 days, at which time the trial was terminated."}, "4T1 breast cancer cells [1]": {"tested_on": "4T1 breast cancer cells", "assay": "survival with single regimen, cyclophosphamide or CATS (FIG. 8)", "format": "in vivo", "conditions": "80 mg/kg ip weekly from Day 16; no mice survived beyond; control 37 days", "description": "Thirty mice were orthotopically implanted with 5×10^4 4T1 breast cancer cells in their mammary fat pad on Day 0. On Day 16, mice were randomized into three cohorts of ten mice each to receive weekly doses of either carrier control (Brown line, Placebo, 25 ng iv), cyclophosphamide cytotoxic drug (CD) chemotherapy (Green line, CD, 80 mg/kg ip) or CATS™ immunotherapy (Purple line, 25 ng iv). Kaplan-Meier curves analyzing surviving mice in each cohort show no mice survived beyond 37 days in the control group, or 46 days in the CD group, while 4 of 10 mice were alive at day 62 in the CATS™ treatment group."}, "4T1 breast cancer cells [2]": {"tested_on": "4T1 breast cancer cells", "assay": "visible lung metastases, CATS versus paclitaxel (FIG. 7)", "format": "in vivo, BALB/c mice", "conditions": "two boluses separated by 2 days; 100 micrograms", "description": "This reflects into a much stronger anti-metastatic activity (FIG. 7) of CATS™ over paclitaxel, that translates to survival benefits. In this study, 40 BALB/c mice were orthotopically implanted in the mammary pad on Day 0 with 1×10^4 4T1 breast cancer cells. When tumor volume approximated 200 mm^3 (on Day 17), mice were randomly distributed into four cohorts of ten mice each. […] Mice were sacrificed when tumor diameter reached 14 mm (Day 30), at which time mice were euthanized, lungs removed, and visible lung metastases were quantitated by a second observer blinded to the treatment protocols. Floating bars depict maximum and minimum number of metastases each cohort, horizontal line indicates mean±SE."}}}
{"smiles": "O=P1(N(CCCl)CCCl)NCCCO1", "note": "(stereo not drawn) [cyclophosphamide]", "values": [{"measurement": "survival at Day 40", "setting": "4T1 cells", "value": "all of the mice receiving cyclophosphamide alone were dead"}, {"measurement": "longest survival", "setting": "4T1 breast cancer cells [1]", "value": "≤ 46", "unit": "days"}]}
{"smiles": "CC(=O)O[C@H]1C(=O)[C@@]2(C)[C@H]([C@H](OC(=O)c3ccccc3)[C@]3(O)C[C@H](OC(=O)[C@H](O)[C@@H](NC(=O)c4ccccc4)c4ccccc4)C(C)=C1C3(C)C)[C@]1(OC(C)=O)CO[C@@H]1C[C@@H]2O", "note": "[Taxol, paclitaxel]", "values": [{"measurement": "tolerability of consolidation dosing", "setting": "4T1 breast cancer cells [2]", "value": "toxic"}]}
